Assays:
[1] = biological target: Norepinephrine transporter (Rattus norvegicus, UniProt Q9WTR4); assay: Inhibition of [3H]nisoxetine binding to norepinephrine (NE) transporter
[2] = biological target: Sodium-dependent dopamine transporter (Rattus norvegicus, UniProt P23977); assay: Inhibition of [3H]WIN-35428 binding to dopamine (DA) transporter
[3] = biological target: Sodium-dependent serotonin transporter (Rattus norvegicus, UniProt P31652); assay: Inhibition of [3H]paroxetine binding to 5-hydroxytryptamine (5-HT) transporter
Sodium-dependent serotonin transporter, sequence (P31652 whole entry): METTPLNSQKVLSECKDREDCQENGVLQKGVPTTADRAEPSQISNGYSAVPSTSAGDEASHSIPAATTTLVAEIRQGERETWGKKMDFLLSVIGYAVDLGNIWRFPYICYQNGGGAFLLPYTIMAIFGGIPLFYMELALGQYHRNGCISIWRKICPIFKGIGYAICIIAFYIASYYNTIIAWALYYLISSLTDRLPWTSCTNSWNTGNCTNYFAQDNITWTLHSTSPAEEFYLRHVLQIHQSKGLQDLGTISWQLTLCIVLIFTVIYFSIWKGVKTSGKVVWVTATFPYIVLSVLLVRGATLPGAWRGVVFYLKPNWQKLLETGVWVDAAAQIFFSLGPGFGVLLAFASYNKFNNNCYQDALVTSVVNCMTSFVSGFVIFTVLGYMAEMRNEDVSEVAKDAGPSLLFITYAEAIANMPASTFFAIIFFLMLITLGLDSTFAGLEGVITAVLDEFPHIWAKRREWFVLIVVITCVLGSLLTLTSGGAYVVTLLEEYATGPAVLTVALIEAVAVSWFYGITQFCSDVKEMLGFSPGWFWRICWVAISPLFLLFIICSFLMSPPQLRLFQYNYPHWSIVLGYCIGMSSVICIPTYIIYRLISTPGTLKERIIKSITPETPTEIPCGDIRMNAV

Sodium-dependent dopamine transporter, sequence (P23977 whole entry): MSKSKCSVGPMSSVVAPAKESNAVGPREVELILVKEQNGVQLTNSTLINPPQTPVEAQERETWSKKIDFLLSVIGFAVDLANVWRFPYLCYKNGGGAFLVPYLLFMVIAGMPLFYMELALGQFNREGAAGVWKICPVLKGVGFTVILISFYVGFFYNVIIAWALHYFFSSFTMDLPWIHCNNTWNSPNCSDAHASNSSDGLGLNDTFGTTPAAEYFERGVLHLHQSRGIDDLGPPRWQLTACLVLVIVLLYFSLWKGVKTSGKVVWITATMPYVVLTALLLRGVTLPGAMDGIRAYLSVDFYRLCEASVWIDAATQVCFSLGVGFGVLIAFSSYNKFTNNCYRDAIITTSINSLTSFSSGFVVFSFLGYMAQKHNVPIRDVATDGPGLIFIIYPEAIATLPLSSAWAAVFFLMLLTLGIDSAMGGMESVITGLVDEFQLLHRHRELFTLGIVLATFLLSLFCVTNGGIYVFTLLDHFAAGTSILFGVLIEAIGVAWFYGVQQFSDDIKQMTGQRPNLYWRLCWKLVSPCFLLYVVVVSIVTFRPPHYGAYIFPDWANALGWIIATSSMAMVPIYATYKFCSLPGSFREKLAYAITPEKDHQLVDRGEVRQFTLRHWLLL
Norepinephrine transporter, sequence (Q9WTR4 whole entry): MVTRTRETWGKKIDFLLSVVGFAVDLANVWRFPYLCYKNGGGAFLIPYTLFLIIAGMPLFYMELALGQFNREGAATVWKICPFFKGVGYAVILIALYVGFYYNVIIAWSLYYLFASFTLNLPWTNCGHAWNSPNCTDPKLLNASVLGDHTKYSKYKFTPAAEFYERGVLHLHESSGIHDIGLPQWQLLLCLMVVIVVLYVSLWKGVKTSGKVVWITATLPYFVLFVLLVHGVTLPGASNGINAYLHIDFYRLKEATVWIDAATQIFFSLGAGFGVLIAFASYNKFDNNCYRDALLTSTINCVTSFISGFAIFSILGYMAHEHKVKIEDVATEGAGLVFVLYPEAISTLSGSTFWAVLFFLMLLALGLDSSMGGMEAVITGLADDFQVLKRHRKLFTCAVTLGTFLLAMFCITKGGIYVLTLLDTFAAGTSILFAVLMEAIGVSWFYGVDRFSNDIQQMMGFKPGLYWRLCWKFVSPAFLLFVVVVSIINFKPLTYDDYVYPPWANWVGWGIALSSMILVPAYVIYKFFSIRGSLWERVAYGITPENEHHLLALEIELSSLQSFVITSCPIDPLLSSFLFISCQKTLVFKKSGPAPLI

How did the IC50 [1] turn out when `COC(=O)[C@H]1[C@@H](c2ccc(F)cc2)C[C@H]2CC[C@H]1N2C` was run?
The IC50 was 834 nM.

What does the source list for `COC(=O)C1C2CCC(C[C@@H]1c1ccc(F)cc1)N2` (stereo not given in full)?
IC50 [2]: 4.39 nM; IC50 [1]: 18.8 nM; IC50 [3]: 68.6 nM

`CCc1ccc([C@H]2C[C@H]3CCC(N3)[C@H]2C(=O)OC)cc1` was tested. Which IC50 [2] did it give?
The IC50 was 49.9 nM.

And the IC50 [1]?
The IC50 was 122 nM.

What about the IC50 [3] of the same molecule?
Its IC50 is 8.13 nM.

Which IC50 [2] does the source give for `CC(C)OC(=O)[C@@H]1C2CC[C@H](C[C@@H]1c1ccc(I)cc1)N2` here?
The IC50 was 1.06 nM.

What about the IC50 [1] of the same molecule?
The IC50 was 132 nM.

And the IC50 [3]?
The IC50 was 3.59 nM.

`COC(=O)[C@@H]1C2CC[C@H](C[C@@H]1c1ccc(I)cc1)N2` was tested. Which IC50 [2] did it give?
The IC50 was 0.69 nM.

And the IC50 [1]?
The IC50 was 7.54 nM.

And the IC50 [3]?
The IC50 was 0.36 nM.

For `COC(=O)C1C2CCC(C[C@@H]1OC(=O)c1ccccc1)N2` (stereo not given in full), which IC50 [2] is on record?
The IC50 was 206 nM.

What about the IC50 [1] of the same molecule?
Its IC50 is 139 nM.

What about the IC50 [3] of the same molecule?
Its IC50 is 127 nM.

Which results are given for `COC(=O)C1C2CCC(C[C@@H]1c1ccccc1)N2` (stereo not given in full)?
IC50 [2]: 30.8 nM; IC50 [1]: 84.5 nM; IC50 [3]: 156 nM

Which results are given for `COC(=O)C1C2CC[C@H](C[C@@H]1c1ccc(I)cc1)N2C` (stereo not given in full)?
IC50 [1]: 36 nM; IC50 [3]: 4.21 nM

For `COC(=O)C1C2CCC(C[C@@H]1c1ccc(Cl)cc1)N2` (stereo not given in full), which IC50 [2] is on record?
The IC50 was 0.62 nM.

And the IC50 [1]?
The IC50 was 5.45 nM.

And the IC50 [3]?
The IC50 was 4.13 nM.

With `CCc1ccc([C@H]2C[C@H]3CCC(C2C(=O)OC)N3C)cc1` (stereo not given in full) as the molecule, how does the IC50 [2] read?
The IC50 was 55 nM.

And the IC50 [1]?
The IC50 was 3910 nM.

What about the IC50 [3] of the same molecule?
The IC50 was 28.4 nM.

With `CC(C)OC(=O)C1C2CC[C@H](C[C@@H]1c1ccc(I)cc1)N2C` (stereo not given in full) as the molecule, how does the IC50 [2] read?
The IC50 was 0.43 nM.

What about the IC50 [1] of the same molecule?
Its IC50 is 285 nM.

And the IC50 [3]?
The IC50 was 66.8 nM.
